Assay results from patent US5498427A, “Solutions for the perfusion, preservation and reperfusion of organs” (Pasteur Merieux Serums et Vaccines, priority 1990, dated 1996).

Legend:
[1] = test system: isolated hearts from Sprague-Dawley rats; assay: Test of solutions containing NAC on isolated rat heart preparations (Langendorff, arrest, 5 h cold storage, 1 h ischemia, 1 h reperfusion); conditions: for Left ventricular pressure developed, Reperfusion: after ischemia and reperfusion; for Left ventricular pressure developed, Reperfusion / Coronary flow rate, Reperfusion / Coronary flow rate, Normal / Left ventricular pressure developed, Normal: N = 10; for Coronary flow rate, Normal / Left ventricular pressure developed, Normal: pre-ischaemic reference value
Procedure: Fifty isovolumic preparations of isolated hearts from Sprague-Dawley rats weighing 300 grams were used, the hearts being connected rapidly to a non-recirculating Langendorff perfusion column to establish a retrograde perfusion using an oxygenated (95% O2, 5% CO2) Krebs-Henseleit buffer, to establish a retrograde perfusion at a pressure of 100 cm of water. The left ventricular pressure, its derivative and the end-diastolicpressure were recorded continuously. The coronary flow rate was measured by noting the venous coronary flow rate. Left ventricular stimulation was maintained at a frequency of 320/min.
After a twenty-minute monitoring period, thirty hearts were arrested by perfusion using the preservation and perfusion solution at 4° C., and then rapidly placed in glass containers filled with the same solution and surrounded by ice. The hearts were maintained therein for five hours, with a mean myocardial temperature of 2° C. at the end of storage. The hearts were then reconnected to the perfusion circuit and subjected to an additional ischemia for one hour at between 15° and 18° C. The hearts were divided into three groups, including a control group which received a first perfusion of a solution which was identical but devoid of NAC on establishment of the post-storage ischemia and an additional perfusion of 25 ml of this solution immediately before unclamping the aorta, the perfusions being performed at 4° C. and 28° C., respectively. […] In the third group, a solution containing NAC at 28° C. was distributed in a single dose at the end of the ischemia. In this latter group, the NAC concentration was adjusted to 0.072 M so that all the hearts treated received the same amount of this substance, that is to say approximately 1.80 millimoles. The bottles containing the solutions as well as the connecting tubes were protected from light in order to avoid oxidation. In all three groups, the perfusions after storage were delivered at a pressure of 30 cm of water. After a period of ischemia of six hours, the hearts were reperfused for one hour at 37° C.
For all three groups, the stimulation was stopped and the left intraventricular balloon deflated during the period of ischemia so as to simulate clinical conditions. After reperfusion, stimulation was reestablished. Isovolumetric measurements of the coronary flow rate, the left ventricular pressure, its first derivative and the telediastolic pressure were performed three times during the monotoring period and then at 5, 30, 45 and 60 minutes during the reperfusion.

[2] = hypothermic storage conditions in usual bags, periods up to 3 hours
Excerpt: In one embodiment the solution is stored, as a whole, in the container.

[3] = Group II, multidose solution enriched with NAC, versus Groups I and III
[4] = Second group, (0.04 M) NAC multidose
[5] = Third group, (0.07 M) NAC single dose at end of ischemia

SMILES | Left ventricular diastolic pressure: postischemic contracture ([1]; Group II, multidose solution enriched with NAC) | Left ventricular pressure developed throughout the reperfusion period [1, 3] | Postischemic derivative dP/dt [1, 3] | Left ventricular diastolic pressure: compliance ([1]; Group III, reperfusion supplemented with NAC only at end of ischemia) | Left ventricular pressure loss after ischemia and reperfusion ([1]; Group III, reperfusion supplemented with NAC only at end of ischemia, versus Group II) | Left ventricular pressure developed, Reperfusion [1, 4] [mm Hg] | Coronary flow rate, Reperfusion ([1]; Second group, (0.04 M) NAC multidose, after sixty minutes of reperfusion) [mL/min] | Coronary flow rate, Normal [1, 4] [mL/min] | Left ventricular pressure developed, Normal [1, 4] [mm Hg] | Left ventricular pressure developed, Reperfusion [1, 5] [mm Hg] | Coronary flow rate, Reperfusion ([1]; Third group, (0.07 M) NAC single dose at end of ischemia, after sixty minutes of reperfusion) [mL/min] | Coronary flow rate, Normal [1, 5] [mL/min] | Left ventricular pressure developed, Normal [1, 5] [mm Hg] | Recovery of coronary flow rate ([1]; groups treated with NAC versus control, after sixty minutes of reperfusion) | Rate of glutathione oxydation on storage [2]
CC(=O)N[C@@H](CS)C(=O)O [NAC, N-acetylcysteine] | significantly decreased | significantly greater pressure was developed | largest values | significant loss of compliance | significantly greater pressure losses | 101.5 ± 3.4 | 12.1 ± 0.5 | 14.8 ± 0.6 | 126.4 ± 2.8 | 69.8 ± 3.6 | 13.4 ± 0.4 | 16.0 ± 0.5 | 129.7 ± 2.0 | best recovery of coronary flow rate | 
N[C@@H](CCC(=O)N[C@@H](CS)C(=O)NCC(=O)O)C(=O)O [glutathione] |  |  |  |  |  |  |  |  |  |  |  |  |  |  | only minimal rate of glutathione oxydation
